Results reported in patent US20040086965A1, “Casein peptide fragments with growth-influencing activity on cell cultures” (priority 2000, published 2004).

System: IPLB-Sf-21 cells
Test: Determination of the biological activity of the peptides: cell count of serum-weaned IPLB-Sf-21 cultures after four days with peptide
Assay type: cell-based, Spodoptera frugiperda
Details: for Rel. yield: IPLB-Sf-21, TC100 medium, 4 days; for peptide concentration at which the maximum growth-promoting effect was achieved: serum-free TC100 medium
Protocol: IPLB-Sf-21 cells (ACC1 19, DSMZ in Braunschweig, Germany) were obtained from Dr. Victor Romanowski (Instituto de Bioquímica y Biología Molecular, Facultad de Ciencias Exactas, Universidad Nacional de la Plata, República Argentina) and maintained at 28° C. in TC-100 medium (Gibco/Life Technologies, Grand Island, N.Y., USA) containing 10% foetal calf serum (FCS, SIGMA, St. Louis, Mo., USA).
IPLB-Sf-21 cells were sown at a starting density of 5×10^4 cells in 1 ml of culture medium (TC-100+10% FCS) in the individual wells of 24-well culture plates. The plates were incubated at 27° C. for two days in a humidified chamber. During the following two days, the cultures were weaned off the serum additive by replacing the medium several times with pure TC100 medium and were then provided with the peptides or peptide fractions at various concentrations. Control cultures were cultivated in pure TC100 medium.
Four days later, the cells were harvested by being scraped off carefully. The cell count per culture well was determined by counting in a Neubauer chamber with an inverted microscope. The Neubauer chamber had two regions for counting. Each sample was counted three times in each of the two regions (six values per sample).

Substance	Rel. yield (Decapeptide concentration 0.01 μg/ml, cell yield relative to cultures without FCS)	Rel. yield (Decapeptide concentration 0.1 μg/ml, cell yield relative to cultures without FCS)	Rel. yield (Decapeptide concentration 1 μg/ml, cell yield relative to cultures without FCS)	Rel. yield (Decapeptide concentration 10 μg/ml, cell yield relative to cultures without FCS)	Rel. yield (Decapeptide concentration 100 μg/ml, cell yield relative to cultures without FCS)	peptide concentration at which the maximum growth-promoting effect was achieved (IPLB-Sf-21 cells) [µg/mL]	effect of higher concentrations on cell growth (concentrations higher than 1 μg/ml, IPLB-Sf-21 cells)	Rel. yield (Tripeptide concentration 0.01 μg/ml, cell yield relative to cultures without peptide and without FCS)	Rel. yield (Tripeptide concentration 0.1 μg/ml, cell yield relative to cultures without peptide and without FCS)	Rel. yield (Tripeptide concentration 1 μg/ml, cell yield relative to cultures without peptide and without FCS)	Rel. yield (Tripeptide concentration 10 μg/ml, cell yield relative to cultures without peptide and without FCS)	Rel. yield (Tripeptide concentration 100 μg/ml, cell yield relative to cultures without peptide and without FCS)	concentrations resulting in growth inhibition (very high concentrations, IPLB-Sf-21 cells) [µg/mL]
Ac-HQPHQPLPPT-OH [Decapeptide]	1.051	1.182	1.272	1.175	0.866	1	growth inhibition	–	–	–	–	–	–
AC-HQP-OH [Tripeptide]	–	–	–	–	–	0.1	–	1.251	1.345	1.101	1.030	0.826	> 10
